In the NIST ThermoML archive (doi:10.1016/j.fluid.2009.11.030):

Assay: excess molar enthalpy (molar enthalpy of mixing); xn = mol fraction of the nth substance listed
Settings: 101.3 kPa, Liquid, Isothermal microcalorimeter

CCOC(=O)CC(=O)OCC [diethyl 1,3-propanedioate] + CC(C)CO
excess molar enthalpy [kcal/mol]
Settings	288.15 K	298.15 K	313.15 K	328.15 K	338.15 K	348.15 K
x1 = 0.0502	0.146	0.146	0.165	0.168	0.166	0.159
x1 = 0.0983	0.252	0.265	0.293	0.3	0.298	0.296
x1 = 0.1494	0.3339	0.3583	0.396	0.4001	0.4065	0.4054
x1 = 0.2006	0.4018	0.4238	0.4785	0.4986	0.4993	0.4947
x1 = 0.2484	0.4517	0.4907	0.5428	0.5531	0.5588	0.5578
x1 = 0.2989	0.4924	0.537	0.588	0.613	0.6095	0.6121
x1 = 0.3486	0.5217	0.5636	0.6226	0.6508	0.6477	0.6456
x1 = 0.3972	0.5413	0.5887	0.6475	0.662	0.6687	0.6649
x1 = 0.4484	0.5531	0.5985	0.6542	0.6752	0.674	0.6721
x1 = 0.4981	0.5598	0.6076	0.6513	0.6718	0.6699	0.6654
x1 = 0.5504	0.5535	0.5951	0.6367	0.6546	0.6537	0.6451
x1 = 0.6006	0.533	0.5739	0.6142	0.6224	0.6178	0.6171
x1 = 0.6485	0.5103	0.5473	0.5801	0.5863	0.5829	0.5772
x1 = 0.6985	0.4761	0.5029	0.538	0.5354	0.5261	0.5272
x1 = 0.7508	0.4223	0.4558	0.4775	0.4711	0.4606	0.4622
x1 = 0.8	0.3659	0.3905	0.4065	0.3972	0.3881	0.3846
x1 = 0.8514	0.295	0.31	0.3246	0.3131	0.304	0.297
x1 = 0.899	0.2	0.218	0.236	0.216	0.224	0.211
x1 = 0.9485	0.115	0.111	0.133	0.119	0.124	0.116

CCOC(=O)CC(=O)OCC [diethyl 1,3-propanedioate] + CCCCCCC
excess molar enthalpy [kcal/mol]
Settings	288.15 K	298.15 K	313.15 K	328.15 K	338.15 K	348.15 K
x1 = 0.0503	–	–	–	0.0896	0.0877	0.0903
x1 = 0.0581	0.105	0.1	0.103	–	–	–
x1 = 0.1008	–	0.171	0.171	0.179	0.174	0.174
x1 = 0.1086	0.179	–	–	–	–	–
x1 = 0.1476	0.2254	0.232	0.238	0.2433	0.247	0.2424
x1 = 0.1984	0.2751	0.2921	0.3059	0.3133	0.3143	0.3074
x1 = 0.2495	0.3131	0.348	0.3619	0.3748	0.37	0.3647
x1 = 0.3007	0.3537	0.3867	0.413	0.4221	0.4283	0.4125
x1 = 0.3481	0.3659	0.4142	0.4436	0.4587	0.4529	0.4517
x1 = 0.3997	0.3786	0.4269	0.4622	0.4828	0.4842	0.4742
x1 = 0.4474	0.381	0.4338	0.4689	0.4883	0.4943	0.4876
x1 = 0.4993	0.3826	0.4348	0.472	0.4897	0.4971	0.4912
x1 = 0.5474	0.3815	0.4326	0.4656	0.4837	0.4909	0.4811
x1 = 0.5997	0.3755	0.4202	0.4515	0.467	0.478	0.4622
x1 = 0.6481	0.3626	0.4054	0.4331	0.4431	0.4503	0.4398
x1 = 0.7008	0.3466	0.374	0.3991	0.4128	0.4149	0.3999
x1 = 0.7495	0.3231	0.3446	0.3576	0.3693	0.3678	0.3609
x1 = 0.7985	0.2868	0.3002	0.3011	0.3222	0.3181	0.3105
x1 = 0.8476	0.237	0.2443	0.2459	0.254	0.257	0.246
x1 = 0.9009	0.167	0.167	0.165	0.18	0.178	0.17
x1 = 0.9504	0.0887	0.0891	0.0887	0.104	0.0939	0.0875

CCOC(=O)CC(=O)OCC [diethyl 1,3-propanedioate] + CCCCCO
excess molar enthalpy [kcal/mol]
Settings	288.15 K	298.15 K	313.15 K	328.15 K	338.15 K	348.15 K
x1 = 0.0494	–	0.146	–	–	–	–
x1 = 0.0583	0.153	–	0.179	0.171	0.185	0.195
x1 = 0.1007	0.235	0.258	0.282	0.292	0.294	0.301
x1 = 0.1478	0.31	0.338	0.387	0.391	0.3934	0.3987
x1 = 0.2	0.3731	0.4132	0.4584	0.4859	0.4897	0.49
x1 = 0.2474	0.4204	0.4646	0.5196	0.5471	0.5504	0.5566
x1 = 0.3001	0.4622	0.5153	0.5793	0.6047	0.6154	0.6068
x1 = 0.3474	0.4885	0.5428	0.6142	0.6424	0.6482	0.6441
x1 = 0.4003	0.512	0.5712	0.6389	0.6666	0.6707	0.6764
x1 = 0.4472	0.5203	0.5844	0.6465	0.6793	0.68	0.6816
x1 = 0.4997	0.5284	0.5896	0.6467	0.6819	0.6826	0.6781
x1 = 0.55	0.528	0.5815	0.6405	0.669	0.6692	0.6656
x1 = 0.5975	0.516	0.5674	0.6209	0.6456	0.6439	0.6405
x1 = 0.6466	0.4945	0.543	0.5906	0.6121	0.5973	0.5992
x1 = 0.6973	0.4653	0.5067	0.5447	0.5609	0.5569	0.5497
x1 = 0.7497	0.4199	0.4572	0.4857	0.4974	0.4919	0.4826
x1 = 0.7988	0.3709	0.3982	0.4185	0.4235	0.4218	0.407
x1 = 0.8494	0.3	0.3198	0.332	0.334	0.331	0.315
x1 = 0.9017	0.212	0.223	0.226	0.232	0.224	0.217
x1 = 0.9501	0.11	0.12	0.121	0.121	0.114	0.109
